Assay results: patent publication US11369616B2, “Drug combination and its use in therapy” (Proximagen, LLC, priority 2016, dated 2022)

Key:
Type in all cases: in vivo, mice
EMT6 = assay: Syngeneic subcutaneous tumour growth inhibition, EMT6 (Study 2); settings: Breast, EMT6, SDF-1 42 FPKM; 641 50 mg/kg p.o. 5 days out of 7; anti-PD1 10 mg/kg i.p. twice weekly for 3 weeks; vs vehicle group
Description: (§1) Four syngeneic cell lines (EMT-6, H22, CT26, B16F10small) were cultured and when in exponential growth were inoculated in mice subcutaneously with tumour cells in 0.1 mL of PBS for tumour development. After the mean tumour size reached approximately 80-120 mm^3 the mice were treated with anti-PD1 antibody (clone RMP1-14) (10 mg/kg i.p. twice weekly for 3 weeks) or 6-{4-[1-(Propan-2-yl)piperidin-4-yl]-1,4-diazepan-1-yl}-N-(pyridin-4-yl)pyridine-2-carboxamide (50 mg/kg p.o. 5 days out of 7), or a combination of the two treatments. Tumour volumes were measured twice weekly at least in two dimensions using a caliper, and the volume expressed in mm^3 using the formula: V=0.5 a×b^2 where a and b are the long and short diameters of the tumour, respectively. Tumour growth was measured and inhibition of tumour growth reported in comparison to a vehicle treated group. All groups contained 8 mice. If the tumours in a group reached an average volume of 2000 mm^3, the experiment was terminated.
(§2) SDF-1 levels were measured by RNA sequencing and are expressed as fragments read per million mapped reads per kilobase of transcript (FPKM). FPKM is normalised to all the fragments read and to the length of the genes, and so is in effect a ratio of the number of SDF-1 reads to all the other genes read multiplied by one million.

H22 = assay: Syngeneic subcutaneous tumour growth inhibition, H22 (Study 2); settings: Liver, H22, SDF-1 26 FPKM; 641 50 mg/kg p.o. 5 days out of 7; anti-PD1 10 mg/kg i.p. twice weekly for 3 weeks; vs vehicle group
Description: as §1, §2

CT26 = assay: Syngeneic subcutaneous tumour growth inhibition, CT26 (Study 2); settings: Colorectal, CT26, SDF-1 17 FPKM; 641 50 mg/kg p.o. 5 days out of 7; anti-PD1 10 mg/kg i.p. twice weekly for 3 weeks; vs vehicle group
Description: as §1, §2

B16F10 small = assay: Syngeneic subcutaneous tumour growth inhibition, B16F10 small (Study 2); settings: Melanoma, SDF-1 4 FPKM, 641 50 mg/kg p.o. 5 days out of 7, anti-PD1 10 mg/kg i.p. twice weekly for 3 weeks, vs vehicle group
Description: as §1, §2

CC(C)N1CCC(N2CCCN(c3cccc(C(=O)Nc4ccncc4)n3)CC2)CC1 [compound 641, 6-{4-[1-(Propan-2-yl)piperidin-4-yl]-1,4-diazepan-1-yl}-N-(pyridin-4-yl)pyridine-2-carboxamide]
% inhibition of tumour growth relative to control (EMT6): 79.8% | % inhibition of tumour growth relative to control (H22): 20.1% | % inhibition of tumour growth relative to control (CT26): 32.1% | % inhibition of tumour growth relative to control (B16F10 small): 0%
